How the values were obtained:
Cdk1 = molecular target: T1, Cdk1 (Homo sapiens, UniProt P06493); assay: In-cell target engagement: CuAAC biotin tagging, Neutravidin pulldown, anti-Cdk1 western blot; type: cell-based; conditions: HeLa cells, 6 hours treatment
T1 construct: endogenous in cells; host or cells: HeLa
Method: (§1) To evaluate whether this in vitro activity would translate into in‐cell target engagement, acrylamide 3 (REFCdk2(WT)=5.6, k GSH=0.033 h^−1, k Cdk2(WT)=0.185 h^−1) was synthesized as a target engagement probe, containing an alkyne handle for bio‐orthogonal ligation. HeLa cells were treated with probe 3 and protein lysates subjected to copper(I) catalyzed azide–alkyne cycloaddition (CuAAC)30 to affect biotin conjugation.
(§2) Figure 7 HeLa cells were treated with 3 for 6 hours. After tagging with biotin‐azide, Neutavidin pulldown was performed. Western blot analysis (anti‐Cdk2 and Cdk1) was performed before (Lysate) and after pulldown (PD).
(§3) 100Rfold! dilution! gave! the! optimum! seed! concentration! for! subsequent! crystallization.!Ligand" conjugated" Cdk2:!Crystallisation!
(§4) was! performed! by! mixing! 1! µL! of! labelled! Cdk2! solution! (8! mg! mLR1,! 100! mM! phosphate! buffer)! with! 0.5! µL! of! reservoir! soluR
(§5) tion! (Jeffamine! EDR2003! concentration! range! 18!R!30%! w/v,! 100! mM! HEPES,! pH! range! 7.5!–!8.5)! and! 0.5! µL! diluted! apoR
(§6) Cdk2(WT)!microseed!stock.!For!labelled!Cdk2(WT),!crystals!appeared!within!2–3!days!and!grew!for!another!10–14!days.!
(§7) L.,Molecular,dynamics,simulation, […]
(§8) maps!were!calculated!using!FFT[20]!and!figures!were!prepared!using!PyMol!(Schrödinger).! […]
(§9) Phosphorylation! of! […] Cdk2! during! gel! electrophoresis! and! the! reaction! was! monitored! by! […]

[1] = qIT (quantitative irreversible tethering) thiol consumption assay with glutathione; conditions: compound 0.5 mM, glutathione 5 μM, TCEP-agarose 2 % w/v
Method: To measure the kinetics of electrophile‐thiol conjugation we developed quantitative irreversible tethering (qIT), a technique which employs fluorogenic thiol quantification (FTQ) in a high‐throughput thiol consumption assay (Figure 1 a). […] We solved this problem using an immobilized reducing agent (TCEP‐agarose, 2 % w/v), allowing facile separation by centrifugation before conducting the FTQ step (Figure 1 b).
The target thiol (5 μM) is reacted with electrophilic fragments (0.5 mM) under pseudo‐first‐order conditions in the presence of TCEP‐agarose (2 % w/v). Reaction progress is followed by discrete measurements of residual target thiol concentration using the fluorogenic probe CPM and rate constants are derived from exponential regression analysis. b) TCEP‐agarose prevents aerobic thiol oxidation. Glutathione solutions were stored ±TCEP‐agarose (2 % w/v).
Electrophiles were individually reacted with glutathione under pseudo‐first‐order conditions in the presence of TCEP‐agarose. […] Fluorescence measurements were normalized against a DMSO control and exponential regressions used to determine rate constants.
ReactionBplate" setup:!Each! well! of! a! 96Rwell! PCR! plate! was! charged! with! 60–100! µL! of! target! thiol! (GSH! or! protein,! 10! µM)!
and! 4%! w/v! TCEPRagarose! beads! in! 100! mM! phosphate! buffer! (pH! 7.5! or! 8)! and! cooled! to! 4! ˚C.! Reactions! were! started! by!
addition! of! an! equal! volume! of! preRcooled! electrophile! solution! (1! mM,! 2%! DMSO)! in! 0.1! M! phosphate! buffer! (final! concentraR
tion:! thiol! =! 5! µM,! electrophile! =! 0.5! mM,! 2%! w/v! TCEPRagarose! beads),! with! a! minimum! of! 4! wells! per! plate! used! as!
DMSO/thiol! only! controls.! After! mixing,! TCEPRagarose! was! pelleted! by! centrifugation! (1,300! rpm,! 1! min)! and! the! plate! incuR
bated!at!4!˚C.,CPM"Quench:! At! a! series! of! time! points!

Cdk2 = molecular target: T2, Cdk2 (Homo sapiens, UniProt P24941); assay: In-cell target engagement: CuAAC biotin tagging, Neutravidin pulldown, anti-Cdk2 western blot; type: cell-based; conditions: HeLa cells, 6 hours treatment
T2 construct: endogenous in cells; host or cells: HeLa
Method: as §1, §2, §3, §4, §5, §6, §7, §8, §9

Cdk2(WT) = Cdk2(WT) (Homo sapiens, UniProt P24941); assay: qIT thiol consumption assay with Cdk2(WT) (Cys177); type: binding; design: made in house; host or cells: E. coli Tuner(DE3)

T1 sequence (P06493 whole entry): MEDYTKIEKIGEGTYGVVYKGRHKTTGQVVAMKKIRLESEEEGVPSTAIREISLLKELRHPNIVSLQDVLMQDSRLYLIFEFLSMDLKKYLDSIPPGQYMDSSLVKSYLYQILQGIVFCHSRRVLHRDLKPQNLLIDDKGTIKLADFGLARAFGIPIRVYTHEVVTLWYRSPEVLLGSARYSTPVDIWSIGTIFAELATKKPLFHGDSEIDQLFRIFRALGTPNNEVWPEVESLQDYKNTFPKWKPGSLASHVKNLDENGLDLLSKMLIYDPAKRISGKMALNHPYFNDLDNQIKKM

isolation of Cdk1 after pull-down (western blot) (Cdk1): not isolated
enrichment of Cdk2 after pull-down (western blot) (Cdk2): concentration‐dependent enrichment
k Cdk2(WT) (pseudo-first-order rate constant) (Cdk2(WT); compound 0.5 mM, Cdk2(WT) 5 μM, TCEP-agarose 2 % w/v): 0.185 h⁻¹
REF Cdk2(WT) (rate enhancement factor = k protein/k GSH) (Cdk2(WT); k Cdk2(WT)/k GSH): 5.6
Compound: C#CCNC(=O)N1CCN(C(=O)C=C)c2ccccc21 [Acrylamide 3]
k GSH (pseudo-first-order rate constant) [1]: 0.033 h⁻¹

— article PMC5947712, “High‐Throughput Kinetic Analysis for Target‐Directed Covalent Ligand Discovery” (Angewandte Chemie (International Ed. in English), 2018)
